The target of the experiment is influenza RNA polymerase (Influenza A virus, UniProt P03431). Nature of the experiment: Influenza polymerase assay (radiolabeled nucleotide incorporation). To be noted: nucleotide triphosphates in influenza polymerase assay. Type of experiment: biochemical.

Each structure is given as a SMILES string.

A word on the IC50: it is the concentration at which inhibition is half-maximal. High values mean weaker potency, low ones greater potency. The compound `O=c1ccn([C@@H]2O[C@@](COP(=O)(O)OP(=O)(O)OP(=O)(O)O)(C(F)F)[C@@H](O)[C@H]2O)c(=O)[nH]1` [TPP-1] registered an IC50 of 10 to 100 µM.
The result for `O=c1[nH]c(=O)n([C@@H]2O[C@@](COP(=O)(O)OP(=O)(O)OP(=O)(O)O)(C(F)F)[C@@H](O)[C@H]2O)cc1Cl` [TPP-2] reads 10 to 100 µM; that for `O=c1[nH]c(=O)n([C@@H]2O[C@@](COP(=O)(O)OP(=O)(O)OP(=O)(O)O)(C(F)F)[C@@H](O)[C@H]2O)cc1F` [TPP-3], 10 to 100 µM; that for `Nc1ccn([C@@H]2O[C@@](COP(=O)(O)OP(=O)(O)OP(=O)(O)O)(C(F)F)[C@@H](O)[C@H]2O)c(=O)n1` [TPP-4], below 10 µM.
Compound `Nc1nc(=O)n([C@@H]2O[C@@](COP(=O)(O)OP(=O)(O)OP(=O)(O)O)(C(F)F)[C@@H](O)[C@H]2O)cc1Cl` [TPP-5] displayed an IC50 of 10 to 100 µM.
As for `Nc1nc(=O)n([C@@H]2O[C@@](COP(=O)(O)OP(=O)(O)OP(=O)(O)O)(C(F)F)[C@@H](O)[C@H]2O)cc1F` [TPP-6], the figure is below 10 µM; as for `Nc1nc(N)c2ncn([C@@H]3O[C@@](COP(=O)(O)OP(=O)(O)OP(=O)(O)O)(C(F)F)[C@@H](O)[C@H]3O)c2n1` [TPP-7], above 100 µM.
As for `Nc1ncnc2c1ncn2[C@@H]1O[C@@](COP(=O)(O)OP(=O)(O)OP(=O)(O)O)(C(F)F)[C@@H](O)[C@H]1O` [TPP-8], the figure is below 10 µM; as for `Nc1ncnc2ncn([C@@H]3O[C@@](COP(=O)(O)OP(=O)(O)OP(=O)(O)O)(C(F)F)[C@@H](O)[C@H]3O)c12` [TPP-9], below 10 µM.
As for `Nc1nc2c(ncn2[C@@H]2O[C@@](COP(=O)(O)OP(=O)(O)OP(=O)(O)O)(C(F)F)[C@@H](O)[C@H]2O)c(=O)[nH]1` [TPP-10], the figure is below 10 µM.

Values taken from patent US9370569B2 (priority 2014, dated 2016).
